{
  "source": "paper PMC12845078",
  "about": "(Pharmaceuticals, 2025)",
  "key": {"[1]": {"assay": "Plasma protein binding (rapid equilibrium dialysis), dog", "details": "beagle", "method": "(§3) After incubation for 20 min, a portion of the whole blood was centrifuged at 2500× g for 10 min at 4 °C to separate plasma; another portion of the whole blood was subjected to three cycles of freeze–thawing and ultrasonicated for 10 min to disrupt cells. Equal volumes of plasma and whole blood samples were added to the whole blood and plasma specimens, respectively, followed by protein precipitation with acetonitrile containing an internal standard (IS). […] The RED inserts were placed in the matching incubation plate: 200 µL of drug-containing matrix were added to the sample chamber, and 400 µL of PBS buffer (pH: 7.4) were added to the buffer chamber. After incubation in a constant-temperature shaking incubator for 6 h (37 °C), samples from the sample chamber and buffer chamber were diluted 1:1 with PBS or matrix, respectively, and proteins were precipitated with acetonitrile containing IS."}, "[2]": {"assay": "Brain tissue protein binding, rat", "format": "in vitro ADME", "details": "pH 7.4", "method": "as §3"}, "[3]": {"test_system": "CYP1A2-mediated metabolism of MT", "assay": "Static DDI model prediction of CBD's impact on MT exposure, rat", "details": "CBD dose 5 mg", "excerpt": "(§1) (AUC when co-administered with the inhibitor) to AUC[contr] (AUC without the inhibitor)."}, "[4]": {"assay": "Plasma protein binding (rapid equilibrium dialysis), rat", "format": "in vitro ADME", "method": "as §3"}, "[5]": {"assay": "Pharmacokinetics of MT and CBD in rats after pre-administration of ABT", "details": "p.o. MT + CBD (5 + 20) mg/kg", "method": "Twelve SD rats were randomly divided into two groups. Both groups were first given an intragastric administration of 1-aminobenzotriazole (ABT) at a dose of 200 mg/kg. […] The administration volume for all groups was 5 mL/kg. […] Approximately 50 μL of venous blood were collected into heparin sodium anticoagulant tubes and placed on ice. The sample processing and storage methods were the same as described previously.\nSubsequently, the resultant mixture was vortexed for 1 minute and centrifuged at 4 °C for 10 min at 18,800× g. […] The lowest limit of quantification (LLOQ) was established at 2 ng/mL.\nKromasil 100-5-C8 (2.1 × 50 mm) was selected for the separation of samples. The mobile phase consisted of solvent A (water with 0.1% formic acid and 5 mM ammonium acetate) and solvent B (methanol with 0.1% formic acid). […] The column temperature was set at 40 °C. The two eluents were 0.1% formic acid and 5 mM ammonium acetate in water (A) and 0.1% formic acid in methanol (B). […] The main mass spectrometry detection parameters were: dry gas 10 L/min, heated gas 10 L/min, collision gas 270 kPa, ion source temperature 300 °C, desolvation temperature 250 °C, and heating module temperature 400 °C.\nPharmacokinetic parameters: GraphPad Prism 10.1 software was utilized to draw the curves. Noncompartmental analysis was selected to calculate the major PK parameters, including clearance (CL), volume (V), half-life (t1/2), peak concentration (Cmax), and area under the curve (AUC), using WinNonlin 8.1."}, "[6]": {"assay": "Liver microsome protein binding, rat", "format": "in vitro ADME", "details": "liver microsomes, pH 7.4"}, "[7]": {"assay": "Pharmacokinetics of MT, 6-HMT and CBD in SD rats (i.v. and oral)", "details": "rat; for half-life / AUC(0-t) / AUC(0-inf) / Cmax / MRT last / Tmax: Sprague-Dawley; for half-life: in vivo, t1/2, rats; for AUC(0-t) / AUC(0-inf) / Cmax / MRT last / Tmax: plasma; for MRT last: MRT(0–t)", "procedure": "The drugs were dissolved in the same manner as described previously, with an administration volume of 5 mL/kg for all groups. Blood samples were collected at the time points of pre-administration and 0.033 (only for the intravenous administration group), 0.083, 0.25, 0.5, 0.75, 1, 1.5, 2, 4, 6, 8, and 12 h post-administration.\n(§2) The column temperature was set at 40 °C."}, "[8]": {"test_system": "CYP1A2-mediated metabolism of MT", "assay": "Static DDI model prediction of CBD's impact on MT exposure, beagle", "design": "species or system beagle dog", "details": "CBD dose 30 mg", "excerpt": "as §1"}, "[9]": {"assay": "Plasma protein binding (rapid equilibrium dialysis), human", "format": "in vitro ADME", "details": "pH 7.4, human", "method": "as §3"}, "[10]": {"assay": "Pharmacokinetics of MT, 6-HMT and CBD in beagles after oral administration", "details": "beagle", "procedure": "Twelve male healthy adult beagles (weighing 10 ± 2 kg) were randomly divided into two groups. […] The drugs were dissolved in a physiological saline solution containing 5% castor oil, with an administration volume of 2 mL/kg. Blood samples were collected at the time points of pre-administration and 0.083, 0.25, 0.5, 0.75, 1, 1.5, 2, 4, 6, 8, and 12 h post-administration.\nas §2"}, "PEPT1": {"target": "T1, PEPT1 (Homo sapiens, UniProt P46059)", "T1 construct": "host or cells: MDCK", "T1 sequence (P46059 1-708)": "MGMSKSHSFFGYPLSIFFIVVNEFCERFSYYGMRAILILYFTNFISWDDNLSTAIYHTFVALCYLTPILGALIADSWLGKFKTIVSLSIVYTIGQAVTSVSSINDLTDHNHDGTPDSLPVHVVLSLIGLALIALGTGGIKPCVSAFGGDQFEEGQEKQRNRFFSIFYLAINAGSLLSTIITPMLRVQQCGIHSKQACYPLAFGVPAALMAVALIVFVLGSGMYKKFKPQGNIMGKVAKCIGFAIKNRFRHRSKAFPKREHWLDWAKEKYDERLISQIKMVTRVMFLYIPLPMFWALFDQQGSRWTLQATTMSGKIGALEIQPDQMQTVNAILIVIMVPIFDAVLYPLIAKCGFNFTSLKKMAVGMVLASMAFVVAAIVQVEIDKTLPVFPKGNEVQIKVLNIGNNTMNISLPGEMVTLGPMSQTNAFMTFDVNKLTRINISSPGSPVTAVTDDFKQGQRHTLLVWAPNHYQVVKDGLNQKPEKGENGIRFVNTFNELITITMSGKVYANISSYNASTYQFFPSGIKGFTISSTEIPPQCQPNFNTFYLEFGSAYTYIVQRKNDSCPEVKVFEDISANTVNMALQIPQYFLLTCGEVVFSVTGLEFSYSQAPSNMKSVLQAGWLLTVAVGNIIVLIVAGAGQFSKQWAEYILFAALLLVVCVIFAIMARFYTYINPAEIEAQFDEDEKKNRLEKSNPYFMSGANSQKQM", "assay": "Uptake and uptake inhibition in MDCK/hPEPT1 cell model", "format": "cell-based", "details": "MDCK", "procedure": "MDCK-PEPT1 cells were seeded into 24-well plates at a density of approximately 5 × 10^5 cells per well. When the cell confluency reached 60–70%, the culture medium was aspirated, and the cells were rinsed twice with HBSS pre-warmed to 37 °C. […] After incubation at 37 °C for 10 min, the buffer was aspirated, and ice-cold HBSS was immediately added to terminate the reaction, followed by rinsing three times. After drying the residual liquid, 200 μL of pure water were added to each well, and the cells were lysed by repeated freezing–thawing in liquid nitrogen three times. The cell lysates were collected, and the protein content was determined by the BCA method.\nCell uptake assessment: The concentration of the analyte in cells was corrected using the protein concentration of the cell lysate in each well.(4) Conclysate=Concdrug/ConcProtein\nThe uptake rate (U, pmol/mg/min) of the compound was calculated following Formula (5).(5) U=Clysate/P×t where Clysate is the amount of drug in the cell lysate (ng); P is cellular protein content (mg); t is incubation time (min).\nThe uptake ratio of the compound was calculated following Formula (6)(6) UR=U/ UMOCK where UMOCK is the uptake rate in MOCK-MDCK cells (pmol/mg/min).\nThe inhibition ratio was calculated following Formula (7)(7) IR=(1−Uwith inhibitor−Umock with inhibitor/Uwithout inhibitor−Umock without inhibitor)×100%"}, "[11]": {"assay": "Liver microsome protein binding, human", "format": "in vitro ADME", "details": "liver microsomes, pH 7.4", "method": "as §3"}, "[12]": {"assay": "Liver microsome protein binding, dog", "format": "in vitro ADME", "details": "beagle, liver microsomes, pH 7.4", "method": "as §3"}, "[13]": {"assay": "Plasma protein binding (rapid equilibrium dialysis), mouse", "format": "in vitro ADME", "details": "pH 7.4", "method": "as §3"}, "[14]": {"details": "po, 20 mg/kg, rats, p.o., MT + CBD (20 + 20) mg/kg"}, "[15]": {"details": "po, 20 mg/kg, rats, p.o., Vehicle + CBD 20 mg/kg"}, "[16]": {"details": "male, po, 20 mg/kg, rats, p.o., MT + CBD (5 + 20) mg/kg"}},
  "note": "Read-outs that look alike come from different tables or passages of the source.",
  "data": [
    {"smiles": "C=C(C)[C@@H]1CCC(C)=C[C@H]1c1c(O)cc(CCCCC)cc1O", "note": "[CBD, Cannabidiol]", "values": [
      {"measurement": "fu, p (free fraction in plasma)", "setting": "[1]", "result": 0.33, "unit": "%"},
      {"measurement": "fraction unbound at 6 h", "setting": "[1]; dog, plasma, pH 7.4", "result": 0.0033},
      {"measurement": "fraction unbound at 6 h", "setting": "[2]", "result": 0.0006},
      {"measurement": "[I]h (estimated free concentration in liver)", "setting": "[3]", "result": 0.74, "unit": "nM"},
      {"measurement": "fu, p (free fraction in plasma)", "setting": "[4]", "result": 0.25, "unit": "%"},
      {"measurement": "fraction unbound at 6 h", "setting": "[4]; plasma, pH 7.4", "result": 0.0025},
      {"measurement": "AUC(0–t) of CBD in ABT-model rats relative to control group", "setting": "[5]", "result": "approximately 1.68 fold"},
      {"measurement": "fraction unbound at 6 h", "setting": "[6]", "result": 0.0055},
      {"measurement": "half-life", "setting": "[7]; po, 20 mg/kg, p.o., MT + CBD (20 + 20) mg/kg", "result": 2.67, "unit": "h"},
      {"measurement": "half-life", "setting": "[7]; po, 20 mg/kg, p.o., Vehicle + CBD 20 mg/kg", "result": 3.55, "unit": "h"},
      {"measurement": "AUC(0-t)", "setting": "[7]; [14]", "result": 1390, "unit": "ng·h/mL"},
      {"measurement": "AUC(0-t)", "setting": "[7]; [15]", "result": 1570, "unit": "ng·h/mL"},
      {"measurement": "AUC(0-inf)", "setting": "[7]; [14]", "result": 1410, "unit": "ng·h/mL"},
      {"measurement": "AUC(0-inf)", "setting": "[7]; [15]", "result": 1590, "unit": "ng·h/mL"},
      {"measurement": "Cmax", "setting": "[7]; [14]", "result": 519, "unit": "ng/mL"},
      {"measurement": "Cmax", "setting": "[7]; [15]", "result": 704, "unit": "ng/mL"},
      {"measurement": "MRT last", "setting": "[7]; [14]", "result": 2.71, "unit": "h"},
      {"measurement": "MRT last", "setting": "[7]; [15]", "result": 3.11, "unit": "h"},
      {"measurement": "Tmax", "setting": "[7]; [14]", "result": 1.21, "unit": "h"},
      {"measurement": "Tmax", "setting": "[7]; [15]", "result": 0.92, "unit": "h"},
      {"measurement": "half-life", "setting": "[7]; male, po, 20 mg/kg, p.o., MT + CBD (5 + 20) mg/kg", "result": 4.14, "unit": "h"},
      {"measurement": "Cmax", "setting": "[7]; male, oral, parameter of CBD for static DDI model", "result": 1620, "unit": "nM"},
      {"measurement": "AUC(0-t)", "setting": "[7]; [16]", "result": 1590, "unit": "ng·h/mL"},
      {"measurement": "AUC(0-inf)", "setting": "[7]; [16]", "result": 1610, "unit": "ng·h/mL"},
      {"measurement": "Cmax", "setting": "[7]; [16]", "result": 510, "unit": "ng/mL"},
      {"measurement": "MRT last", "setting": "[7]; [16]", "result": 3.85, "unit": "h"},
      {"measurement": "Tmax", "setting": "[7]; [16]", "result": 1.5, "unit": "h"},
      {"measurement": "Ka (oral absorption rate)", "setting": "[7]; calculated as 0.693/(tmax/5)", "result": 2.31},
      {"measurement": "[I]h (estimated free concentration in liver)", "setting": "[8]", "result": 1.37, "unit": "nM"},
      {"measurement": "fraction unbound at 6 h", "setting": "[9]; read-out: Plasma Protein Binding (converted)", "result": 0.001},
      {"measurement": "fraction unbound at 6 h", "setting": "[9]; read-out: fu, p (free fraction in plasma)", "result": 0.0001},
      {"measurement": "Ka (oral absorption rate)", "setting": "[10]; calculated as 0.693/(tmax/5)", "result": 3.77},
      {"measurement": "Cmax", "setting": "[10]; male, dog, plasma, oral", "result": 1310, "unit": "nM"},
      {"measurement": "inhibition at 500 µM", "setting": "PEPT1; 500 μM CBD, 100 μM MT, 4 °C, read-out: uptake inhibition rate of MT", "result": 2.7, "unit": "%"},
      {"measurement": "inhibition at 500 µM", "setting": "PEPT1; 500 μM CBD, 100 μM MT, 37 °C, read-out: uptake inhibition rate of MT", "result": 79.6, "unit": "%"},
      {"measurement": "inhibition at 500 µM", "setting": "PEPT1; pH 6.3, 500 μM CBD, 100 μM Gly, pH 6.3, 37 °C, read-out: inhibition rate on the uptake of Gly via PEPT1", "result": 46.7, "unit": "%"},
      {"measurement": "inhibition at 500 µM", "setting": "PEPT1; pH 6.3, 500 μM CBD, 100 μM UBEN, pH 6.3, 37 °C, read-out: inhibition rate on the uptake of UBEN via PEPT1", "result": 55.8, "unit": "%"},
      {"measurement": "fraction unbound at 6 h", "setting": "[11]", "result": 0.0073},
      {"measurement": "fraction unbound at 6 h", "setting": "[12]", "result": 0.0018},
      {"measurement": "fraction unbound at 6 h", "setting": "[13]", "result": 0.0029}
    ]}
  ]
}
